The results in this text go back to ChEMBL document CHEMBL1201862, “PubChem BioAssay data set” (2004).

The structures appear in SMILES notation.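 Assay format: 96-well plates, 48-hour exposure. GI50 marks 50% less growth.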 Activity calls are given as the source filed them. Rule as the data show it: active = GI50 up to about 1.1 µM and inactive = higher. A value given as a limit tells only on which side of the number the result lay.

Holding throughout (experiment): growth of human tumour cells (NCI), 48 h
Assay [1] relates to NCI/ADR-RES.
In assay [2] the test system is SK-MEL-28.
In assay [3] the test system is PC-3.
The test system of assay [4] is 786-0.
In assay [5] the test system is KM12.
Assay [6] concerns OVCAR-3.
Assay [7] relates to MDA-MB-435.
For assay [8], the system named is EKVX.
Assay [9] relates to HT-29.
The test system of assay [10] is COLO 205.
The subject of assay [11] is SK-OV-3.
Assay [12] deals with SK-MEL-2.
Assay [13] deals with SN12C.
Assay [14] deals with MDA-N.
Assay [15] has as its system M14.
Assay [16] concerns SF-295.
Assay [17] concerns IGROV-1.
The test system of assay [18] is K562.
The test system of assay [19] is U-251.
In assay [20] the test system is MOLT-4.

For `CC(Oc1ccc(Cl)cc1Cl)C(=O)NN1C(=O)CSC1c1ccccc1` (stereo not given), the GI50 was 86.3 µM (inactive) in assay [1]; 50.5 µM (inactive) in assay [2]; 32.4 µM (inactive) in assay [3]; 43.5 µM (inactive) in [4]; 64 µM (inactive) in assay [5]; 96.4 µM (inactive) in [6]. Moreover, the GI50 in [7] was > 100 µM (inactive); in assay [8], 90.2 µM (inactive); in assay [9] it was > 100 µM (inactive); in [10] it was > 100 µM (inactive); in assay [11], 55.8 µM (inactive); in [12], 45.4 µM (inactive). The GI50 in assay [13] was 69.2 µM (inactive); in [14], > 100 µM (inactive); in [15], 54.2 µM (inactive); in assay [16], 60 µM (inactive); in [17] it was 54 µM (inactive); in assay [18], 63.4 µM (inactive). The values for the GI50 in [19] and in assay [20] were 76.4 µM (inactive) and > 100 µM (inactive), respectively.

With `C#CC(O)/C=C/CCCCCCC#CC/C=C\CC#CCCCCCCCCC(O)C#C` (stereo not given), the GI50 in assay [1] was 3.39 µM (inactive); in [2], 3.42 µM (inactive); in assay [3] it was 14.3 µM (inactive); in [4] it was 2.08 µM (inactive); in assay [5], 3.05 µM (inactive); in [6], 10.1 µM (inactive). Moreover, the GI50 in assay [7] is 2.53 µM (inactive); in assay [8], 3.51 µM (inactive); in assay [9], 2.74 µM (inactive); in assay [10] it was 2.58 µM (inactive); in assay [11], 17.6 µM (inactive); in assay [12] it was 2.59 µM (inactive). Moreover, the GI50 is 1.99 µM (inactive) in assay [13]; 1.99 µM (inactive) in assay [14]; 1.11 µM (active) in assay [15]; 15.1 µM (inactive) in [16]; 0.407 µM (active) in assay [17]; 3.14 µM (inactive) in assay [18]. Besides, the figures for the GI50 in [19] and in assay [20] were 20.5 µM (inactive) and 0.27 µM (active), respectively.

Regarding `CC1(C)CCC2=C(O1)/C(=N\Nc1ccc(S(N)(=O)=O)cc1)c1ccccc1C2=O`, the GI50 is 20.2 µM (inactive) in assay [1]; 18.7 µM (inactive) in assay [2]; 13.6 µM (inactive) in assay [3]; 7.5 µM (inactive) in assay [4]; 10.5 µM (inactive) in assay [5]; 16.7 µM (inactive) in assay [6]. In addition, the GI50 in assay [7] was 10.7 µM (inactive); in [8], 16.7 µM (inactive); in [9], 14.7 µM (inactive); in [10], 20.3 µM (inactive); in assay [11] it was 4.15 µM (inactive); in assay [12], 11.9 µM (inactive). In addition, the GI50 in assay [13] is 11.2 µM (inactive); in assay [14], 2.84 µM (inactive); in assay [15], 16.1 µM (inactive); in assay [16] it was 11.8 µM (inactive); in assay [17], 14.2 µM (inactive); in assay [18], 28.4 µM (inactive). Besides, the GI50 is 8.73 µM (inactive) in assay [19] and 27.4 µM (inactive) in assay [20].

Turning to `C(=N\CCCN1CCN(CCC/N=C/c2cccc3ccccc23)CC1)/c1cccc2ccccc12`, the GI50 is 38.8 µM (inactive) in assay [1]; 56.4 µM (inactive) in assay [2]; > 100 µM (inactive) in [3]; > 100 µM (inactive) in assay [4]; > 100 µM (inactive) in assay [5]; > 100 µM (inactive) in assay [6]. For the same compound, the GI50 in [7] is 14.5 µM (inactive); in assay [8] it was 71.8 µM (inactive); in assay [9], 45.3 µM (inactive); in [10], > 100 µM (inactive); in assay [11] it was > 100 µM (inactive); in assay [12], > 100 µM (inactive). The GI50 is > 100 µM (inactive) in assay [13]; 20 µM (inactive) in assay [14]; 8.99 µM (inactive) in [15]; 57.9 µM (inactive) in assay [16]; > 100 µM (inactive) in [17]; 26.4 µM (inactive) in [18]. Further, the GI50 in assay [19] is 36.2 µM (inactive); in [20], 39.4 µM (inactive).
